Assay results taken from patent US9339522B2, “Method for regulating blood glucose level” (SINPHAR PHARMACEUTICAL CO., LTD., priority 2013, dated 2016).

Columns and labels:
[1] = tested on: human hepatocellular liver carcinoma cell line (HepG2); experiment: Carbohydrate consumption assay in HepG2 cells; assay type: cell-based
Protocol: A carbohydrate consumption assay was conducted by using human hepatocellular liver carcinoma cell line (HepG2, Bioresource Collection and Research Center, BCRC number: 60025). The cells were treated with 1000 μg/ml glucose, and then treated with 100 nM insulin, 50 μg/ml Cistanche tubulosa extract (CTE), 12.5 μg/ml of echinacoside, 1.25 μg/ml of acteoside, or 2.25 μg/ml of isoacteoside (i.e., an active component by an amount of what it presents in the extract). After 1 hour, the carbohydrate consumption level was determined. The results are shown in FIG. 10, wherein the data were shown as mean±standard deviation (n=3); ***P<0.001 (as compared to the control group).
To further confirm if the active components that are present in Cistanche tubulosa extract have the effect of accelerating liver cells to uptake blood sugar, a carbohydrate consumption assay as described above was conducted by using different concentrations of Cistanche tubulosa extract, echinacoside, acteoside and isoacteoside to treated the HepG2 cells. The results are shown in FIG. 11, wherein the data were shown as mean±standard deviation (n=3); **P<0.01; ***P<0.001 (as compared to the control group); #P<0.05 (as compared to the insulin group).

[2] = tested on: induced diabetic rats; experiment: Determination of total triglyceride concentration in plasma; assay type: in vivo, SD (Sprague-Dawley) rats; conditions: DMR group: rosiglitazone 0.571 mg/kg body weight oral once daily 6 weeks, DM + 45% HFD rats, mean, n = 10
Protocol: (§1) 4-week-old male SD (Sprague-Dawley) rats were fed for one week, and then randomly divided into six groups (10 rats in each group), including five experimental groups and a control group. The rats in the experimental groups were intraperitoneally injected with 230 mg/kg body weight of nicotinamide, and then intraperitoneally injected with 65 mg/kg body weight of streptozocin to induced diabetes mellitus (the DM group). The control group was intraperitoneally injected with the same volume of a citrate buffer (pH 4.5). […] The rats in the control group and the DM group were administered with double distilled water once daily for 6 weeks. The body weight of the rats was measured weekly and the caloric intake was calculated.
(§2) After the above glucose tolerance test, the rats were sacrificed, and the blood samples were taken from the celiac artery. The blood samples were centrifuged at 3000 rpm, 4° C. for 15 minutes. The supernatant was collected, which is the plasma. Other tissue of the rats was also taken out and weighed, and then stored at −80° C. for the following biochemical data analysis.

[3] = tested on: induced diabetic rats; experiment: Over-oxidation of plasma lipid (plasma malondialdehyde); assay type: in vivo, SD (Sprague-Dawley) rats; conditions: DMR group: rosiglitazone 0.571 mg/kg body weight oral once daily 6 weeks, DM + 45% HFD rats, mean, n = 10
Protocol: as §1, §2

[4] = tested on: induced diabetic rats; experiment: Determination of fasting plasma glucose concentration; assay type: in vivo, SD (Sprague-Dawley) rats; conditions: DMR group: rosiglitazone 0.571 mg/kg body weight oral once daily 6 weeks; DM + 45% HFD rats; mean, n = 10
Protocol: as §1, §2

[5] = tested on: induced diabetic rats; experiment: Homeostasis model assessment equation of insulin resistance (HOMA-IR); assay type: in vivo, SD (Sprague-Dawley) rats; conditions: DMR group: rosiglitazone 0.571 mg/kg body weight oral once daily 6 weeks; DM + 45% HFD rats; mean, n = 10
Protocol: 4-week-old male SD (Sprague-Dawley) rats were fed for one week, and then randomly divided into six groups (10 rats in each group), including five experimental groups and a control group. The rats in the experimental groups were intraperitoneally injected with 230 mg/kg body weight of nicotinamide, and then intraperitoneally injected with 65 mg/kg body weight of streptozocin to induced diabetes mellitus (the DM group). The control group was intraperitoneally injected with the same volume of a citrate buffer (pH 4.5). After a week, the fasting blood glucose of the induced diabetic rats in the experimental groups were measured, to confirmed the fasting blood glucose>[…]. The rats were then fed with a 45% high fat diet (HFD) for 6 weeks. […] The body weight of the rats was measured weekly and the caloric intake was calculated. […]
The homeostasis model assessment equation of insulin resistance (HOMA-IR) was calculated by the formula as follows: HOMA-IR=fasting plasma insulin concentration (mU/ml)×fasting plasma glucose concentration (mmole/L)÷22.5

[6] = Body weight and caloric intake of diabetic SD rats during 6 weeks treatment; assay type: in vivo, SD (Sprague-Dawley) rats; conditions: FIG. 1; measured weekly; comparison between groups; rosiglitazone 0.571 mg/kg, CTE 80, 160, 320 mg/kg oral once daily 6 weeks
Protocol: 4-week-old male SD (Sprague-Dawley) rats were fed for one week, and then randomly divided into six groups (10 rats in each group), including five experimental groups and a control group. The rats in the experimental groups were intraperitoneally injected with 230 mg/kg body weight of nicotinamide, and then intraperitoneally injected with 65 mg/kg body weight of streptozocin to induced diabetes mellitus (the DM group). The control group was intraperitoneally injected with the same volume of a citrate buffer (pH 4.5). After a week, the fasting blood glucose of the induced diabetic rats in the experimental groups were measured, to confirmed the fasting blood glucose>[…]. The rats were then fed with a 45% high fat diet (HFD) for 6 weeks. Then, using the dosage shown in Table 1, the rats were orally administered with 0.571 mg/kg body weight of rosiglitazone (a medicine for regulating blood glucose levels, which is an insulin sensitizer) (DMR group) or 80 mg/kg body weight of Cistanche tubulosa extract (CTE) (DME1 group), 160 mg/kg body weight of CTE (DME2 group), or 320 mg/kg body weight of CTE (DME4 group), once daily for 6 weeks. The rats in the control group and the DM group were administered with double distilled water once daily for 6 weeks. The body weight of the rats was measured weekly and the caloric intake was calculated. […]

[7] = tested on: induced diabetic rats; experiment: Determination of plasma leptin concentration (enzyme immunoassay); assay type: in vivo, SD (Sprague-Dawley) rats; conditions: DMR group: rosiglitazone 0.571 mg/kg body weight oral once daily 6 weeks, DM + 45% HFD rats, mean, n = 10
Protocol: as §1, §2

[8] = tested on: induced diabetic rats; experiment: Determination of plasma insulin concentration (ELISA); assay type: in vivo, SD (Sprague-Dawley) rats; conditions: DMR group: rosiglitazone 0.571 mg/kg body weight oral once daily 6 weeks, DM + 45% HFD rats, mean, n = 10
Protocol: as §1, §2

[9] = Weights of the liver, kidney, heart, and abdominal fat of the rats; assay type: in vivo, SD (Sprague-Dawley) rats; conditions: DMR group: rosiglitazone 0.571 mg/kg body weight oral once daily 6 weeks; DM + 45% HFD rats; mean, n = 10
Protocol: 4-week-old male SD (Sprague-Dawley) rats were fed for one week, and then randomly divided into six groups (10 rats in each group), including five experimental groups and a control group. The rats in the experimental groups were intraperitoneally injected with 230 mg/kg body weight of nicotinamide, and then intraperitoneally injected with 65 mg/kg body weight of streptozocin to induced diabetes mellitus (the DM group). The control group was intraperitoneally injected with the same volume of a citrate buffer (pH 4.5). After a week, the fasting blood glucose of the induced diabetic rats in the experimental groups were measured, to confirmed the fasting blood glucose>[…]. The rats were then fed with a 45% high fat diet (HFD) for 6 weeks. Then, using the dosage shown in Table 1, the rats were orally administered with 0.571 mg/kg body weight of rosiglitazone (a medicine for regulating blood glucose levels, which is an insulin sensitizer) (DMR group) or 80 mg/kg body weight of Cistanche tubulosa extract (CTE) (DME1 group), 160 mg/kg body weight of CTE (DME2 group), or 320 mg/kg body weight of CTE (DME4 group), once daily for 6 weeks. The rats in the control group and the DM group were administered with double distilled water once daily for 6 weeks. The body weight of the rats was measured weekly and the caloric intake was calculated. The results are shown in FIG. 1 (body weight) and FIG. 2 (caloric intake).
In this experiment, the weights of the liver, kidney, heart, and abdominal fat of the rats treated with different conditions for 6 weeks were determined.

[10] = tested on: induced diabetic rats; experiment: Liver and kidney function indicators in plasma (urea, creatinine, ALT, AST); assay type: in vivo, SD (Sprague-Dawley) rats; conditions: DMR group: rosiglitazone 0.571 mg/kg body weight oral once daily 6 weeks, DM + 45% HFD rats, mean, n = 10
Protocol: as §1, §2
It has been known that diabetes mellitus may cause a lot of complications.

[11] = tested on: induced diabetic rats; experiment: Plasma antioxidant enzymes (SOD, catalase, GPx); assay type: in vivo, SD (Sprague-Dawley) rats; conditions: DMR group: rosiglitazone 0.571 mg/kg body weight oral once daily 6 weeks, DM + 45% HFD rats, mean, n = 10
Protocol: as §1, §2
It has been known that both Type I diabetes mellitus and Type II diabetes mellitus may cause the decreased expression of antioxidant enzymes in the body, and thus, increases oxidative stress. In this experiment, the concentrations of superoxide dismutase (SOD) catalase, and glutathione peroxidase (GPx) in the plasma of the rats were analyzed by an SOD detection kit, a catalase detection kit, and a GPx detection kit (Eugene-Chen CO., LTD, TW), respectively, to analyze the effect of CTE on the expression levels of antioxidant enzymes.

[12] = tested on: induced diabetic rats; experiment: Determination of total cholesterol concentration in plasma; assay type: in vivo, SD (Sprague-Dawley) rats; conditions: DMR group: rosiglitazone 0.571 mg/kg body weight oral once daily 6 weeks, DM + 45% HFD rats, mean, n = 10
Protocol: as §1, §2

[13] = tested on: liver cells; conditions: acteoside obtained from plantago, CN 102283854 A; cited from earlier work
[14] = tested on: mice having type I diabetes or type II diabetes induced by different medicaments; conditions: mice with induced type I or type II diabetes; acteoside obtained from plantago; CN 102283854 A; cited from earlier work
[15] = FIG. 11, 5 μg/ml and 50 μg/ml, HepG2, compared to the control group, dose dependence
[16] = FIG. 11, very low concentration, such as 5 μg/ml, HepG2

C[C@@H]1O[C@@H](O[C@@H]2[C@@H](O)[C@H](OCCc3ccc(O)c(O)c3)O[C@H](COC(=O)/C=C/c3ccc(O)c(O)c3)[C@H]2O)[C@H](O)[C@H](O)[C@H]1O [isoacteoside]
Carbohydrate consumption level ([1]; FIG. 10, 2.25 μg/ml, HepG2, 1000 μg/ml glucose, after 1 hour, compared to the control group): effectively increase
Carbohydrate consumption level [1, 15]: effectively increase
Carbohydrate consumption level [1, 16]: increase

CN(CCOc1ccc(CC2SC(=O)NC2=O)cc1)c1ccccn1 (stereo not shown) [rosiglitazone]
The total triglyceride [2]: 62.77 mg/dL
Malondialdehyde [3]: 13.38 nM/ml
Fasting blood glucose [4]: 134.37 mg/dL
HOMA-IR [5]: 2.37 μg · mmole/L^2
Body weight [6]: no significant difference
Leptin [7]: 6.38 ng/mL
Insulin [8]: 3.57 ng/mL
Abdominal fat weight, percentage compared to body weight [9]: 2.49%
Heart weight, percentage compared to body weight [9]: 0.34%
Kidney weight, percentage compared to body weight [9]: 0.34%
Liver weight, percentage compared to body weight [9]: 3.21%
ALT [10]: 29.88 U/L
AST [10]: 38.24 U/L
AST/ALT [10]: 1.34
Creatinine [10]: 1.19 mg/dL
Urea [10]: 19.14 mg/dL
Catalase [11]: 60.05 U/mg protein
Glutathione peroxidase [11]: 811.08 U/mg protein
Superoxide dismutase [11]: 0.65 U/mg protein
Total cholesterol [12]: 106.90 mg/dL

C[C@@H]1O[C@@H](O[C@@H]2[C@@H](O)[C@H](OCCc3ccc(O)c(O)c3)O[C@H](CO)[C@H]2OC(=O)/C=C/c2ccc(O)c(O)c2)[C@H](O)[C@H](O)[C@H]1O [acteoside]
Carbohydrate consumption level ([1]; FIG. 10, 1.25 μg/ml, HepG2, 1000 μg/ml glucose, after 1 hour, compared to the control group): not obvious
Carbohydrate consumption level [1, 15]: effectively increase
Consumption of glucose [13]: effective in promoting the consumption of glucose
Fasting blood glucose level [14]: decrease
Serum insulin level [14]: enhancing

C[C@@H]1O[C@@H](O[C@@H]2[C@@H](O)[C@H](OCCc3ccc(O)c(O)c3)O[C@H](CO[C@@H]3O[C@H](CO)[C@@H](O)[C@H](O)[C@H]3O)[C@H]2OC(=O)/C=C/c2ccc(O)c(O)c2)[C@H](O)[C@H](O)[C@H]1O [echinacoside]
Carbohydrate consumption level ([1]; FIG. 10, 12.5 μg/ml, HepG2, 1000 μg/ml glucose, after 1 hour, compared to the control group): effectively increase
Carbohydrate consumption level [1, 15]: effectively increase
Carbohydrate consumption level [1, 16]: increase
